Measured values reported in patent US20220031736A1, “USE OF ANIONIC CLAY IN PREPARING LEAD-REMOVING MEDICINE” (priority 2019, published 2022).
Several values for one entry are separate records, joined by “and”; a condition that tells them apart may be missing. Identical values can stand only once.

Tested on: rats with chronic lead poisoning
Assay: Chronic rat lead poisoning model, administration for treatment
Format: in vivo
Experimental: After the model was successfully established, the lead was stopped and the rates were fed with distilled water from the 31st day. […] The rats in the positive medicine group were given a dose of 10 mg/kg of sodium dimercaptosuccinate by intragastric administration, and all the intragastric subjects were given in equal volume twice a day for 30 days. On the 60th day, blood samples were collected. Brain, liver and femur samples were collected and stored in liquid nitrogen for later use. After wet digestion, the blood samples and tissues of each group were tested for content of lead by inductively coupled plasma mass spectrometry (ICP-MS), and the lead-removing rates were counted.
All the data were processed by SPSS 20.0 statistical software. Every group of measurement data was expressed by mean±[…] (mean±SD), and all of which were tested for homogeneity of variance by Levene method first. If the variances were homogeneous, single factor analysis of variance was used among multiple groups, and two-sample T test was used between two groups. If the hypothesis of parameter test was unreasonable, Kruskal-Wallis test was used among multiple groups, while Wilcoxon test was used between two groups. p<0.05 or p<0.01 was statistically significant.
40 male SD rats were randomly divided into five groups including a normal group, a model group, a positive medicine group (sodium dimercaptosuccinate group), a high-dose magaldrate group and a low-dose magaldrate group according to their body weights, and each group included 8 rats. Except the rats in the normal group were given ultrapure water, the rats in the model group, the positive medicine group, and the magaldrate groups of each dose drank 0.5% lead acetate ultrapure water solution for 30 days, resulting in chronic lead-exposed models. After the model was successfully established, the lead was stopped and the rates were fed with distilled water from the 31st day. The rats in the normal group were given an equal volume of 0.5% CMC-Na solution by intragastric administration, while the rats in the high-dose magaldrate group and the low-dose magaldrate group were given a high dose of 0.6 g/kg and a low dose of 0.3 g/kg respectively by intragastric administration. The rats in the positive medicine group were given a dose of 10 mg/kg of sodium dimercaptosuccinate by intragastric administration, and all the intragastric subjects were given in equal volume twice a day for 30 days. On the 60th day, blood samples were collected. Brain, liver and femur samples were collected and stored in liquid nitrogen for later use. After wet digestion, the blood samples and tissues of each group were tested for content of lead by inductively coupled plasma mass spectrometry (ICP-MS), and the lead-removing rates were counted. […]

[1] = 60th day, positive medicine 0.01 g/kg intragastric twice a day for 30 days, mean ± SD

Compound: O=C([O-])C(S)C(S)C(=O)[O-].[Na+].[Na+] (stereo not shown) [Sodium dimercaptosuccinate, sodium dimercaptosuccinate]
- Content of lead in blood [1]: 0.058 ± 0.01 µg/g and 0.069 ± 0.01 µg/g and 0.059 ± 0.01 µg/g and 0.073 ± 0.01 µg/g
- Content of lead in brain [1]: 0.129 ± 0.03 µg/g and 0.218 ± 0.04 µg/g and 0.178 ± 0.04 µg/g and 0.165 ± 0.05 µg/g
- Femur content of lead [1]: 32.085 ± 4.73 µg/g and 35.006 ± 3.92 µg/g and 28.075 ± 3.25 µg/g and 33.478 ± 4.86 µg/g
- Removing rate, lead in bones (positive medicine group 10 mg/kg, versus model group): 0.00%
